Experimental data as given in US8871681B2, “Herbicidal compositions comprising 4-amino-3-chloro-5-fluoro-6-(4-chloro-2-fluoro-3-methoxyphenyl) pyridine-2-carboxylic acid or a derivative thereof and certain sulfonylureas” (Dow AgroSciences LLC, priority 2012, dated 2014).

Key:
[1] = test system: ECHCO (Echinochloa colona, junglerice); assay: In-water applied weed control, transplanted paddy rice, greenhouse (Example II); format: in vivo, Echinochloa colona (L.) Link
Description: (§1) Weed seeds or nutlets of the desired test plant species were planted in puddled soil (mud) prepared by mixing a shredded, non-sterilized mineral soil (50.5 percent silt, 25.5 percent clay, and 24 percent sand, with a pH of about 7.6 and an organic matter content of about 2.9 percent) and water at a 1:1 volumetric ratio. The prepared mud was dispensed in 365 mL aliquots into 16-ounce (oz.) non-perforated plastic pots with a surface area of 86.59 square centimeters (cm^2) leaving a headspace of 3 centimeters (cm) in each pot. Rice seeds were planted in Sun Gro MetroMix® 306 planting mixture, which typically has a pH of 6.0 to 6.8 and an organic matter content of about 30 percent, in plastic plug trays. Seedlings at the second or third leaf stage of growth were transplanted into 860 mL of mud contained in 32-oz. non-perforated plastic pots with a surface area of 86.59 cm^2 4 days prior to herbicide application. The paddy was created by filling the headspace of the pots with 2.5 to 3 cm of water. When required to ensure good germination and healthy plants, a fungicide treatment and/or other chemical or physical treatment was applied. The plants were grown for 4-22 days in a greenhouse with an approximate 14 h photoperiod which was maintained at about 29′C during the day and 26° C. during the night. Nutrients were added as Osmocote® (19:6:12, N:P:K+minor nutrients) at 2 g per 16-oz. pot and 4 g per 32-oz. pot. Water was added on a regular basis to maintain the paddy flood, and supplemental lighting was provided with overhead metal halide 1000-Watt lamps as necessary. The plants were employed for testing when they reached the first through fourth true leaf stage.
(§2) Treatments consisted of the acid or esters of 4-amino-3-chloro-5-fluoro-6-(4-chloro-2-fluoro-3-methoxy-phenyl)pyridine-2-carboxylic acid (compound A) each formulated as an SC and various herbicidal components alone and in combination. Forms of compound A were applied on an acid equivalent basis.
(§3) Other herbicidal components were applied on an active ingredient basis and included acetolactate synthase (ALS)-inhibiting herbicides (sulfonylurea chemical class), azimsulfuron formulated as Gulliver®, bensulfuron-methyl formulated as Londax® 60DF, cyclosulfamuron (technical grade materail), ethoxysulfuron formulated as Sunrice® 15 WDG, flucetosulfuron formulated as Sukedachi® 1KG G, imazosulfuron formulated as Brazzos®, metsulfuron-methyl formulated as Lorate®, nicosulfuron formulated as Accent®, orthosulfamuron formulated as Strada® WG, propyrisulfuron formulated as Zeta One®, and rimsulfuron formulated as Matrix® WG.
(§4) Treatment requirements for each compound or herbicidal component were calculated based upon the rates being tested, the concentration of active ingredient or acid equivalent in the formulation, an application volume of 2 mL per component per pot, and an application area of 86.59 cm^2 per pot.
(§5) For formulated compounds, a measured amount was placed in an individual 100 or 200 mL glass vial and was dissolved in a volume of 1.25% (v/v) Agri-Dex® crop oil concentrate to obtain application solutions.
(§6) For technical grade compounds, a weighed amount was placed in an individual 100 to 200 mL glass vial and was dissolved in a volume of acetone to obtain concentrated stock solutions. […] The concentrated stock solutions obtained were diluted with an equivalent volume of an aqueous mixture containing 2.5% (v/v) crop oil concentrate so that the final application solutions contained 1.25% (v/v) crop oil concentrate.
(§7) Applications were made by injecting with a pipetter appropriate amounts of the application solutions, individually and sequentially, into the aqueous layer of the paddy. Control plants were treated in the same manner with the solvent blank. Applications were made so that all treated plant material received the same concentrations of acetone and crop oil concentrate. […]

[2] = test system: SCPMA (Bolboschoenus maritimus or Schoenoplectus maritimus, sea clubrush); assay: as above; format: in vivo, Bolboschoenus maritimus (L.) Palla
Procedure, shortened: (§8)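 Transplanted rice and weeds at first to fourth true leaf stage in flooded mud pots (2.5–3 cm water), greenhouse ~29/26 °C day/night. Herbicides alone or mixed, in 1.25% crop oil concentrate (acetone for technical material), injected into the flood; visual 0–100% injury after ~3 weeks, expected mixture effects by Colby.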

[3] = test system: DIGSA (Digitaria sanguinalis, large crabgrass); assay: Postemergence foliar-applied weed control, direct seeded rice, greenhouse (Example I); format: in vivo, Digitaria sanguinalis (L.) Scop.; settings: 24 DAA
Description: (§9) Seeds or nutlets of the desired test plant species were planted in a soil matrix prepared by mixing a loam or sandy loam soil (e.g., 28.6 percent silt, 18.8 percent clay, and 52.6 percent sand, with a pH of about 5.8 and an organic matter content of about 1.8 percent) and calcareous grit in an 80 to 20 ratio. The soil matrix was contained in plastic pots with a volume of 1 quart and a surface area of 83.6 square centimeters (cm^2). When required to ensure good germination and healthy plants, a fungicide treatment and/or other chemical or physical treatment was applied. The plants were grown for 8-22 days in a greenhouse with an approximate 14 h photoperiod which was maintained at about 29° C. during the day and 26° C. during the night. Nutrients (Peters Excel® 15-5-15 5-Ca 2-Mg and iron chelate) were applied in the irrigation solution as needed and water was added on a regular basis. Supplemental lighting was provided with overhead metal halide 1000-Watt lamps as necessary. The plants were employed for testing when they reached the first through fourth true leaf stage.
(§10) Treatments consisted of the acid or esters of 4-amino-3-chloro-5-fluoro-6-(4-chloro-2-fluoro-3-methoxy-phenyl)pyridine-2-carboxylic acid (Compound A), each formulated as an SC, and various herbicidal components alone and in combination. Forms of compound A were applied on an acid equivalent basis.
(§11) Other herbicidal components were applied on an active ingredient basis and included acetolactate synthase (ALS)-inhibiting herbicides (sulfonylurea chemical class) azimsulfuron formulated as Gulliver®, bensulfuron-methyl formulated as Londax® 60DF, cyclosulfamuron (technical material), ethoxysulfuron formulated as Sunrice® 15 WDG, flazasulfuron formulated as Katana®, flucetosulfuron formulated as Sukedachi® 1KG G, foramsulfuron formulated as Option®, imazosulfuron formulated as Brazzos® WG, iodosulfuron-methyl-sodium formulated as Hussar®, metsulfuron-methyl formulated as Lorate®, nicosulfuron formulated as Accent®, orthosulfamuron formulated as Strada® WG, primisulfuron-methyl (technical material), propyrisulfuron formulated as Zeta One®, rimsulfuron formulated as Matrix® WG, sulfometuron-methyl formulated as Oust®, and trifloxysulfuron-sodium formulated as Monument® 75WG.
(§12) Treatment requirements were calculated based upon the rates being tested, the concentration of active ingredient or acid equivalent in the formulation, and a 12 mL application volume at a rate of 187 L/ha.
(§13) For treatments comprised of formulated compounds, measured amounts of compounds were placed individually in 25 mL glass vials and diluted in a volume of 1.25% (v/v) Agri-Dex® crop oil concentrated to obtain 12× stock solutions. […] Application solutions were prepared by adding an appropriate amount of each stock solution (e.g., 1 mL) and diluted to the appropriate final concentrations with the addition of 10 mL of an aqueous mixture of 1.25% (v/v) crop oil concentrate so that the final spray solutions contained 1.25+/−0.05% (v/v) Agrcrop oil concentrate.
(§14) For treatments comprised of formulated and technical compounds, weighed amounts of the technical materials were placed individually in 25 mL glass vials and dissolved in a volume of 97:3 v/v acetone/DMSO to obtain 12× stock solutions, and measured amounts of the formulated compounds were placed individually in 25 mL glass vials and diluted in a volume of 1.25% (v/v) crop oil concentrate to obtain 12× stock solutions. […] Application solutions were prepared by adding an appropriate amount of each stock solution (e.g., 1 mL) and diluted to the appropriate final concentrations with the addition of an appropriate amount of an aqueous mixture of 1.5% (v/v) crop oil concentrate so that the final spray solutions contained 1.25% (v/v) crop oil concentrate. […]

[4] = test system: LEFCH (Leptochloa chinensis, Chinese sprangletop); assay: as above; format: in vivo, Leptochloa chinensis (L.) Nees; settings: Dinebra chinensis, post-emergence, 576 h, 24 DAA, read-out: Visual Weed Control (%) Obs
Description: as §9, §10, §11, §12, §13, §14

[5] = test system: LEFCH (Leptochloa chinensis, Chinese sprangletop); assay: In-water applied weed control, transplanted paddy rice, greenhouse (Example II); format: in vivo, Leptochloa chinensis (L.) Nees
Description: as §1, §2, §3, §4, §5, §6, §7

[6] = test system: BRAPP (Brachiaria platyphylla, broadleaf signalgrass); assay: Postemergence foliar-applied weed control, direct seeded rice, greenhouse (Example I); format: in vivo, Brachiaria platyphylla (Griseb.) Nash; settings: Urochloa platyphylla, post-emergence, read-out: Visual Weed Control (%) Obs
Procedure, shortened: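 Greenhouse-grown plants (14 h photoperiod, 29/26 °C day/night) at first to fourth true leaf stage sprayed overhead at 187 L/ha with Compound A (acid equivalent basis) alone or mixed with sulfonylurea ALS inhibitors (active ingredient basis). Final spray contained 1.25% v/v crop oil concentrate; controls received solvent blank.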

[7] = test system: FIMMI (Fimbristylis miliacea, globe fringerush); assay: In-water applied weed control, transplanted paddy rice, greenhouse (Example II); format: in vivo, Fimbristylis miliacea (L.) Vahl
Description: as §1, §2, §3, §4, §5, §6, §7

[8] = test system: CYPIR (Cyperus iria, rice flatsedge); assay: Postemergence foliar-applied weed control, direct seeded rice, greenhouse (Example I); format: in vivo, Cyperus iria L.; settings: 22 DAA
Description: as §9, §10, §11, §12, §13, §14

[9] = test system: ECHOR (Echinochloa oryzoides, early watergrass); assay: In-water applied weed control, transplanted paddy rice, greenhouse (Example II); format: in vivo, Echinochloa oryzoides (Ard.) Fritsch
Procedure, shortened: as §8

[10] = test system: ISCRU (Ischaemum rugosum, saramollagrass); assay: Postemergence foliar-applied weed control, direct seeded rice, greenhouse (Example I); format: in vivo, Ischaemum rugosum Salisb.; settings: 21 DAA
Description: as §9, §10, §11, §12, §13, §14

## COc1cc(OC)nc(NC(=O)NS(=O)(=O)c2c(Cl)nc3ccccn23)n1 [Imazosulfuron, 2-chloro-N-[[(4,6-dimethoxy-2-pyrimidinyl)amino]carbonyl]imidazo[1,2-a]pyridine-3-sulfonamide, reference compound]
[1]; Table 38, 22.5 gai/ha alone
  Visual Weed Control (%) - 21 DAA ECHCO Obs: 20%
[1]; Table 38, 45 gai/ha alone
  Visual Weed Control (%) - 21 DAA ECHCO Obs: 20%
[1]; Table 39, 45 gai/ha alone
  Visual Weed Control (%) - 21 DAA ECHCO Obs: 20%
[2]; Table 38, 168 gai/ha alone
  Visual Weed Control (%) - 20 DAA SCPMA Obs: 65%
[2]; Table 39, 168 gai/ha alone
  Visual Weed Control (%) - 20 DAA SCPMA Obs: 65%
[2]; Table 40, 168 gai/ha alone
  Visual Weed Control (%) - 20 DAA SCPMA Obs: 65%
[3]; 21 gai/ha
  Visual Weed Control (%) Obs: 0%
[3]; 42 gai/ha
  Visual Weed Control (%) Obs: 0%
[4]; 21 gai/ha
  pest or weed control at 21 g/ha: 0%
[4]; 42 gai/ha
  pest or weed control at 42 g/ha: 0%
[4]; 84 gai/ha
  pest or weed control at 84 g/ha: 0%

## CCCc1ccc2nc(Cl)c(S(=O)(=O)NC(=O)Nc3nc(OC)cc(OC)n3)n2n1 [Propyrisulfuron, 2-chloro-N-[[(4,6-dimethoxy-2-pyrimidinyl)amino]carbonyl]-6-propylimidazo[1,2-b]pyridazine-3-sulfonamide, reference compound]
[2]; Table 48, 11.25 gai/ha alone
  Visual Weed Control (%) - 21 DAA SCPMA Obs: 80%
[5]; Table 47, 22.5 gai/ha alone
  Visual Weed Control (%) - 21 DAA LEFCH Obs: 0%
[5]; Table 47, 45 gai/ha alone
  Visual Weed Control (%) - 21 DAA LEFCH Obs: 0%
[6]; 504 h, 21 DAA, 11.25 gai/ha
  pest or weed control at 11.25 g/ha: 0%
[6]; 504 h, 21 DAA, 22.5 gai/ha
  pest or weed control at 22.5 g/ha: 20%
[6]; 504 h, 21 DAA, 45 gai/ha
  pest or weed control at 45 g/ha: 10%
[7]; Table 48, 11.25 gai/ha alone
  Visual Weed Control (%) - 21 DAA FIMMI Obs: 85%
[7]; Table 48, 22.5 gai/ha alone
  Visual Weed Control (%) - 21 DAA FIMMI Obs: 88%
[7]; Table 48, 45 gai/ha alone
  Visual Weed Control (%) - 21 DAA FIMMI Obs: 95%

## CCOc1ccccc1OS(=O)(=O)NC(=O)Nc1nc(OC)cc(OC)n1 [Ethoxysulfuron, 2-ethoxyphenyl[[(4,6-dimethoxy-2-pyrimidinyl)amino]carbonyl]sulfamate, reference compound]
[8]; 7.5 gai/ha
  Visual Weed Control (%) Obs: 50%
[8]; 15 gai/ha
  Visual Weed Control (%) Obs: 50%
[8]; 30 gai/ha
  Visual Weed Control (%) Obs: 85%
[5]; Table 34, 15 gai/ha alone
  Visual Weed Control (%) - 22 DAA LEFCH Obs: 0%
[5]; Table 35, 7.5 gai/ha alone
  Visual Weed Control (%) - 22 DAA LEFCH Obs: 0%
[5]; Table 35, 15 gai/ha alone
  Visual Weed Control (%) - 22 DAA LEFCH Obs: 0%
[6]; 528 h, 22 DAA, 7.5 gai/ha
  pest or weed control at 7.5 g/ha: 0%
[6]; 528 h, 22 DAA, 15 gai/ha
  pest or weed control at 15 g/ha: 0%
[6]; 528 h, 22 DAA, 30 gai/ha
  pest or weed control at 30 g/ha: 0%
[9]; Table 34, 7.5 gai/ha alone
  Visual Weed Control (%) - 22 DAA ECHOR Obs: 10%
[9]; Table 35, 7.5 gai/ha alone
  Visual Weed Control (%) - 22 DAA ECHOR Obs: 10%
[9]; Table 35, 15 gai/ha alone
  Visual Weed Control (%) - 22 DAA ECHOR Obs: 20%
[10]; 17.5 gai/ha
  Visual Weed Control (%) Obs: 0%
[10]; 70 gai/ha
  Visual Weed Control (%) Obs: 0%
